In US11986557B2, “Stealth nanoparticles” (HOWARD UNIVERSITY, priority 2018, dated 2024):

Assays:
[1] = pH 5.0 versus pH 7.4; cited from earlier work
[2] = tested on: SKBR3; assay: In vitro cytotoxicity studies, SKBR3; assay type: cell-based, human
Method: (§1) In vitro cytotoxicity studies were conducted to determine the cytotoxic effect of paclitaxel (as a free drug/not in nanoparticle), 17AAG (free drug), paclitaxel+17AAG combination (as free drugs), and paclitaxel+17AAG combination loaded nanoparticles on two human breast cancer cell lines, SKBR3 and MCF7.
(§2) In preparation of the drug combination treatment, one part of each drug was halved and combined, such that each drug in the combination treatment contained half the concentration of their single drug counterparts. This means that the paclitaxel concentration in the combination treatment is 50% of the paclitaxel (single drug) treatment. In other words, the ratio of the concentration in the single drug to its respective concentration in the combination is 2:1. Also, the drug concentration ratio within the combination (paclitaxel: 17AAG) was approximately 1:1.
(§3) For 5 days of assaying, three plates were treated for each day. The first was treated with paclitaxel solution (single drug) and paclitaxel/17AAG combination solution and second with 17AAG solution (single drug) and paclitaxel/17AAG combination solution. The last plate was treated with the combination drug loaded nanoparticle solution and paclitaxel/17AAG combination solution (free drug).

[3] = tested on: MCF7; assay: In vitro cytotoxicity studies, MCF7; assay type: cell-based, human
Method: as §1, §2, §3

| Structure (SMILES) | Hydrolysis rate [1] | Cytotoxic effect at low concentrations [2] | Cytotoxic effect at low concentrations [3] |
| --- | --- | --- | --- |
| C=C(C)C(=O)OCCOC(OCCOC(=O)C(=C)C)c1ccc(OC)cc1OC [di (2-methacryloyloxyethoxy)-[2,4-dimethoxyphenyl]methane] | hydrolyzes much faster at pH 5.0 than at pH 7.4 | – | – |
| C=CCNC1=C2C[C@@H](C)C[C@H](OC)[C@H](O)[C@@H](C)/C=C(\C)[C@H](OC(N)=O)[C@@H](OC)/C=C\C=C(/C)C(=O)NC(=CC1=O)C2=O [Formulation 17AAG, 17 allylamino, 17 demethoxygeldanamycin] | – | did not show any significant cytotoxic effect | did not show any significant cytotoxic effect |
